Converted amounts (≈) assume the structure as drawn.
conditions: buffer; pH 7.4; 200.0 µM

SMILES | solubility kinetic [µg/mL]
CCc1ccc(NC2=NCCCS2)cc1 | > 33
CC(=O)Nc1ccc(Oc2nc(-c3ccccn3)nc3ccccc23)cc1 | 6.8 (≈ 19.1 µM)
CS(=O)(=O)Nc1ccccc1C(=O)OCC(=O)NCc1cccs1 | > 55.3
CNc1nc(-c2ccccc2)cc(-c2ccccc2)n1 | 1.4 (≈ 5.36 µM)
COc1ccc(CNc2ncnc3sccc23)cc1OC | 20.2 (≈ 67 µM)
Cc1ccccc1OC(C)C(=O)NCc1cccnc1 (configuration not stated) | 38.1 (≈ 141 µM)
COc1ccc([C@@H]2Sc3ccccc3NC(=O)[C@@H]2O)cc1 | 6.2 (≈ 20.6 µM)
CC(=NCCN(C)C)c1c(O)n(Cc2ccccc2)c(=O)[nH]c1=O | > 49.6
O=C(COC(=O)c1ccccc1OCc1ccccc1Cl)NCC1CCCO1 (configuration not stated) | > 60.6
CCOC(=O)c1c(C)noc1-c1ccc(Br)o1 | < 0.6
CCC(=Nc1ccccc1O)C1=C(O)CC(c2ccccc2)CC1=O (configuration not stated) | 39.7 (≈ 118 µM)
Cc1ccccc1N(CC(=O)N1CCCCCC1)S(C)(=O)=O | > 48.7
O=C(CSCc1ccc(Cl)cc1)Nc1ccc(O)cc1C(=O)O | > 52.8
COc1cccc2cc(C(=O)NCCc3ccccc3)oc12 | 26.9 (≈ 91.1 µM)
CN1CCN(C(=O)c2ccc(-c3cccs3)s2)CC1 | > 43.9
CC1CCN(CCn2c(=S)[nH]c3ccccc3c2=O)CC1 | 43.3 (≈ 143 µM)
Cc1ccc([N+](=O)[O-])cc1NC(=O)c1cccnc1 | > 38.6
Cc1ccc(-c2nc(C#N)c(N3CCC(C(N)=O)CC3)o2)cc1 | 1.6 (≈ 5.16 µM)
CSC(=NCc1ccco1)NC#N | 27.8 (≈ 142 µM)
O=C(NCCOc1ccccc1)C1=CC=CN2CCS(=O)(=O)N=C12 | > 52.1
O=c1[nH]c2ccccc2n2c(C(F)(F)F)nnc12 | > 38.1
Cc1oncc1-c1csc(-c2ccccc2Cl)n1 | 0.6 (≈ 2.17 µM)

SMILES | solubility kinetic [µg/mL]
CCOc1ccc(-c2nc(N)ncc2-c2ccccc2OC)c(O)c1 | 1.3 (≈ 3.85 µM)
N#C/C(=C\Nc1ccc(Cl)cn1)S(=O)(=O)c1ccccc1 | < 0.2
C=CCNc1nc(N)c([N+](=O)[O-])c(N2CCCCCC2)n1 | 40.4 (≈ 138 µM)
FC(F)(F)c1ccc(-n2cnc3ccccc32)nc1 | 13.5 (≈ 51.3 µM)
CNC(=O)c1oc(-c2ccccc2)nc1C | > 32.4
O=C(Nc1cccnc1Cl)c1cccc(F)c1 | 36.1 (≈ 144 µM)
O=C(NC(CO)C(=O)OCc1ccccc1)OCc1ccccc1 (configuration not stated) | > 49.4
O=C(NCc1cccnc1)Nc1ccc(Br)cc1Cl | 19.2 (≈ 56.4 µM)
O=C(Cc1ccc(F)cc1)OCN1C(=O)c2ccccc2C1=O | 39.8 (≈ 127 µM)
Cc1ccc(-c2nc(N)sc2-c2ccc(C)cc2)cc1 | 0.5 (≈ 1.78 µM)
CCN(c1ccccc1)S(=O)(=O)c1ccc(Cl)c(NC(=O)CNC(C)c2ccccc2)c1 (configuration not stated) | 3.2 (≈ 6.78 µM)
COc1ccc(Cl)cc1NC(=O)CNc1ccccc1N1CCOCC1 | < 0.3
N#CCCN1C(=O)C2(OCCO2)c2ccccc21 | > 36.6
OCCc1c[nH]c2ccc(OCc3ccccc3)cc12 | 24.8 (≈ 92.8 µM)
O=C(NC1CCCCCCC1)c1cccs1 | 22.5 (≈ 94.8 µM)
N#Cc1ccccc1COc1cccc2c1CCCC2O (configuration not stated) | 2.1 (≈ 7.52 µM)
Cc1ncc([N+](=O)[O-])n1CC(=O)Nc1ccc(Cl)cc1 | 5.7 (≈ 19.3 µM)
Cc1ccc2nsnc2c1NC(=O)c1cncc(Br)c1 | 16.3 (≈ 46.7 µM)
COc1ccc(N2C(=O)NC(NC(=O)C(C)(C)C)(C(F)(F)F)C2=O)cc1 (configuration not stated) | > 56
NC(=O)c1ccsc1NC(=O)COC(=O)c1ccccn1 | > 45.8
O=S(=O)(c1c(Cl)cc(Br)cc1Cl)N1CCN(C(=S)NC2CC2)CC1 | 5.3 (≈ 11.2 µM)
Cc1ccc(C(C)C)c(OCC(=O)NC2CCN(C)CC2)c1 | > 45.7

SMILES | solubility kinetic [µg/mL]
CC(Sc1ncccn1)C(=O)Nc1ccc2c(c1)OCCO2 (configuration not stated) | > 47.6
Cc1ccc(-c2noc(-c3c(C)noc3C)n2)cc1 | < 0.2
C=CCSc1nc(C)cc2c1C(=O)OC2 | > 33.2
CC1CCC2(CC1)NC(=O)N(CC(=O)Nc1cc(S(=O)(=O)N3CCCC3)ccc1Cl)C2=O (configuration not stated) | 1.4 (≈ 2.9 µM)
O=C(NC(=O)c1c(F)cccc1F)Nc1ccccc1SC(F)F | < 0.4
CCOC(=O)c1ccc2c(c1)N(CC)C(=O)c1ccccc1S2 | 13.2 (≈ 40.3 µM)
CC(=O)Nc1ccc(S(=O)(=O)Nc2ccc(C)c([N+](=O)[O-])c2)cc1 | > 52.4
COc1ccc(NC(=O)CC2CC3CCC2C3)cc1S(=O)(=O)N1CCOCC1 (configuration not stated) | > 61.3
CC(NCc1ccccc1Cl)C(=O)Nc1ccc(C#N)cc1 (configuration not stated) | 44.5 (≈ 142 µM)
O=C(NCCO)C(=O)Nc1cc2c3c(c1)CCN3C(=O)CC2 | > 45.5
CC(=O)c1c(C)[nH]c(C(=O)Nc2ccccc2Cl)c1C | 2.7 (≈ 9.29 µM)
Cl.c1ccc(-c2ccc(CNC3CC3)cc2)cc1 | 37.9
CC1CCN(C(=O)CSc2nc3ncccc3[nH]2)CC1 | > 43.6
Cc1noc(C)c1S(=O)(=O)NCc1cccc(Cl)c1 | > 45.1
O=C(O)C1CC(=O)N(CCc2ccc(F)cc2)C1 (configuration not stated) | > 37.7
CC(C)CN1C(=O)c2ccc(NC(=O)Cc3ccccc3)cc2C1=O | < 0.4
Cc1cc(C(=O)OCC(=O)N2CCOCC2)ccc1[N+](=O)[O-] | > 46.2
N#Cc1ccsc1NC(=O)COC(=O)CCS(=O)(=O)c1ccccc1 | > 56.8
CN(C)CC/C=C1\c2cc(Cl)ccc2Sc2cc(F)c(F)cc21.Cl | 21.8
NC(=O)C1CCN(C(=O)CCn2c(=O)oc3ccccc32)CC1 | > 47.6
CC(Oc1ccc(F)cc1)C(O)CCN(C)C (configuration not stated) | 25.8 (≈ 107 µM)
O=C1NC(=O)C(c2ccccc2)(c2ccc(O)cc2)N1 (configuration not stated) | > 40.2

SMILES | solubility kinetic [µg/mL]
O=C1N/C(=N\c2ccccn2)SC1Cc1ccc(Cl)cc1 (configuration not stated) | < 0.2
CN(C)c1cc(-c2ccc(Cl)cc2)oc(=O)c1Cl | 1.7 (≈ 5.98 µM)
Nc1cc(=O)[nH]c(SCC(=O)Nc2cccnc2Cl)n1 | > 46.8
O=C(Nc1nc2cc3c(cc2s1)OCCO3)c1ccco1 | 4.8 (≈ 15.9 µM)
Cc1c([N+](=O)[O-])c(C(=O)NC2CCCCC2)nn1C | > 39.9
CCC(/C=N/NC(=O)c1ccccc1F)CC | > 35.4
COc1ccc(CNc2ncccn2)cc1OC | > 36.8
O=C(COC(=O)/C=C/c1ccccc1[N+](=O)[O-])NC1CC1 | > 43.5
COc1cccc(NC(=O)CN(C)C(=O)C2=COCCO2)c1 | 43.1 (≈ 141 µM)
O=C(CS(=O)c1ccc(F)cc1)N1CCOCC1 (configuration not stated) | > 40.7
CN1CCC(N(C)C(=S)Nc2ccc(F)cc2)CC1 | > 42.2
Cc1ccc(NS(=O)(=O)c2cccc3nsnc23)cc1C | 39.2 (≈ 123 µM)
COc1ccc(N2C(=O)CSC2c2cccc(F)c2)cc1 (configuration not stated) | 29.2 (≈ 96.3 µM)
CCc1ccc(C(=O)Nc2cccnc2Oc2ccc(Cl)cc2)cc1 | 1.5 (≈ 4.25 µM)
CCCC/C(O)=C1\C(=O)CC(C)(C)CC1=Nc1ccc(N)cc1 | > 47.2
CC(C)C(C)NC(=O)COc1ccc(OCc2ccccc2)cc1 (configuration not stated) | 1.9 (≈ 5.8 µM)
O=C(COC(=O)[C@@H]1CCCN1C(=O)c1cccs1)Nc1cccc(Cl)c1 | 26.9 (≈ 68.5 µM)
O=C(Nc1ccc2ncccc2c1)c1ccccc1Br | 3.3 (≈ 10.1 µM)
CCCCC12CN3CC(C)(CN(C1)C3c1ccc([N+](=O)[O-])o1)C2=O (configuration not stated) | > 50
O=C(CCCl)Nc1nc2c(s1)CCc1ccccc1-2 | 7.2 (≈ 24.6 µM)
CC(C)(C)c1ccc(CCC2OCC(C[N+]3(C)CCOCC3)O2)cc1.[I-] (configuration not stated) | > 71.3

Reference: PubChem BioAssay AID1996
